Broadly, the IC50 is the concentration needed to halve the response being measured.

The values below come from patent US9809574B2, “Isoindoline or isoquinoline compounds, a process for their preparation and pharmaceutical compositions containing them” (LES LABORATOIRES SERVIER, priority 2013, dated 2017).

One assay addresses Bcl-2 protein (histag-Bcl-2, UniProtKB P10415) (Homo sapiens (Human), UniProt P10415). The assay can be described thus: Inhibition of Bcl-2 by the fluorescence polarisation technique. In kind it is binding. Particulars: fluorescence polarisation test; incubation for 2 hours; read-out: IC50 (nM) Bcl-2 FP. An excerpt: For partial inhibitors, the percentage fluorescence polarisation inhibition for a given concentration of the test compound is indicated.
For orientation: Polarisation of emitted light reports the rotation of a fluorescent probe.

Assay [1] relates to RS4; 11 leukaemia cell line. The assay can be described thus: In vitro cytotoxicity, Microculture Tetrazolium Assay (MTT). It counts as cell-based. Particulars: Homo sapiens, 11 cells exposed for 48 hours. How it is done: The cytotoxicity studies were carried out on the RS4; 11 leukaemia cell line and on H146 small Cell Lung Carcinoma cell line. The cells are distributed onto microplates and exposed to the test compounds for 48 hours. The cell viability is then quantified by a colorimetric assay, the Microculture Tetrazolium Assay (Cancer Res., 1987, 47, 939-942).

Chain of Bcl-2 protein (P10415 whole entry): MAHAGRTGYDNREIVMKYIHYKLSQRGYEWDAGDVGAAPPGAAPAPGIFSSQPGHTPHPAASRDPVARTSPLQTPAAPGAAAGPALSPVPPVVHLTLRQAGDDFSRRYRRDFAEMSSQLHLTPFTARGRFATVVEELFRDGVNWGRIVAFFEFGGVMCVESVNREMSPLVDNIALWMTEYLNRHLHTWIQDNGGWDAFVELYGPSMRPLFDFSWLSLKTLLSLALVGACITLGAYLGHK

With `COc1cccc(/C=C/C(=O)N2CCc3cc(-c4cc(C(=O)N(C)c5ccc(O)cc5)c(C)n4C)c(C(=O)N4Cc5ccccc5C[C@H]4CN4CCOCC4)cc3C2)c1` [Example 136, N-(4-Hydroxyphenyl)-5-{2-[(2E)-3-(3-methoxyphenyl)prop-2-enoyl]-7-[(3S)-3-(morpholin-4-ylmethyl)-1,2,3,4-tetrahydroisoquinoline-2-carbonyl]-1,2,3,4-tetrahydroisoquinolin-6-yl}-N,1,2-trimethyl-1H-pyrrole-3-carboxamide], the results for the IC50 (on Bcl-2 protein; in assay [1]) were 6.7 nM and 24 nM, respectively.

As for `Cc1c(C(=O)N(C)c2ccc(O)cc2)cc(-c2cc3c(cc2C(=O)N2Cc4ccccc4C[C@H]2CN2CCOCC2)CN(C(=O)/C=C/c2ccc(Cl)c(Cl)c2)CC3)n1C` [Example 137, 5-{2-[(2E)-3-(3,4-dichlorophenyl)prop-2-enoyl]-7-[(3S)-3-(morpholin-4-ylmethyl)-1,2,3,4-tetrahydroisoquinoline-2-carbonyl]-1,2,3,4-tetrahydroisoquinolin-6-yl}-N-(4-hydroxyphenyl)-N,1,2-trimethyl-1H-pyrrole-3-carboxamide], the IC50 at Bcl-2 protein stood at 9.4 nM; in assay [1], 47 nM.

For `C[C@@H]1Cc2ccccc2CN1C(=O)c1cc2c(cc1-c1cc(C(=O)N(C)c3ccc(O)cc3)c3n1CCCC3)CCN(C(=O)CCc1ccc(NCCN(C)C)cc1)C2` [Example 138, 3-{2-[3-(4-{[2-(Dimethylamino)ethyl]amino}phenyl)propanoyl]-7-[(3R)-3-methyl-1,2,3,4-tetrahydroisoquinoline-2-carbonyl]-1,2,3,4-tetrahydroisoquinolin-6-yl}-N-(4-hydroxyphenyl)-N-methyl-5,6,7,8-tetrahydroindolizine-1-carboxamide], the IC50 at Bcl-2 protein worked out at 12 nM; in assay [1] it was 114 nM.

For `Cc1ccc(OC(=O)N2CCc3cc(-c4cc(C(=O)N(C)c5ccc(O)cc5)c(C)n4C)c(C(=O)N4Cc5ccccc5C[C@H]4CN4CCOCC4)cc3C2)cc1` [Example 139, 4-Methylphenyl 6-{4-[(4-hydroxyphenyl)(methyl)carbamoyl]-1,5-dimethyl-1H-pyrrol-2-yl}-7-[(3S)-3-(morpholin-4-ylmethyl)-1,2,3,4-tetrahydroisoquinoline-2-carbonyl]-1,2,3,4-tetrahydroisoquinoline-2-carboxylate], the IC50 was found to be 5.1 nM at Bcl-2 protein and 0.84 nM in assay [1].

As to `Cc1c(C(=O)N(C)c2ccc(O)cc2)cc(-c2cc3c(cc2C(=O)N2Cc4ccccc4C[C@H]2CN2CCOCC2)CN(C(=O)Oc2ccc(Cl)cc2)CC3)n1C` [Example 140, 4-Chlorophenyl 6-{4-[(4-hydroxyphenyl)(methyl)carbamoyl]-1,5-dimethyl-1H-pyrrol-2-yl}-7-[(3S)-3-(morpholin-4-ylmethyl)-1,2,3,4-tetrahydroisoquinoline-2-carbonyl]-1,2,3,4-tetrahydroisoquinoline-2-carboxylate], the IC50 worked out at 6.6 nM on Bcl-2 protein and 4 nM in assay [1].

Take `CN(C(=O)c1cc(-c2cc3c(cc2C(=O)N2Cc4ccccc4C[C@H]2CN2CCOCC2)CN(C(=O)Oc2ccc(C(N)=O)cc2)CC3)n2c1CCCC2)c1ccc(O)cc1` [Example 141, 4-Carbamoylphenyl 6-{1-[(4-hydroxyphenyl)(methyl)carbamoyl]-5,6,7,8-tetrahydroindolizin-3-yl}-7-[(3S)-3-(morpholin-4-ylmethyl)-1,2,3,4-tetrahydroisoquinoline-2-carbonyl]-1,2,3,4-tetrahydroisoquinoline-2-carboxylate]: the IC50 at Bcl-2 protein came out at 5.9 nM; in assay [1], 82 nM.

For the molecule `CN(C)C(=O)c1ccc(OC(=O)N2CCc3cc(-c4cc(C(=O)N(C)c5ccc(O)cc5)c5n4CCCC5)c(C(=O)N4Cc5ccccc5C[C@H]4CN4CCOCC4)cc3C2)cc1` [Example 142, 4-(Dimethylcarbamoyl)phenyl 6-{1-[(4-hydroxyphenyl)(methyl)carbamoyl]-5,6,7,8-tetrahydroindolizin-3-yl}-7-[(3S)-3-(morpholin-4-ylmethyl)-1,2,3,4-tetrahydroisoquinoline-2-carbonyl]-1,2,3,4-tetrahydroisoquinoline-2-carboxylate], the figures for the IC50 (on Bcl-2 protein; in assay [1]) were 5.5 nM and 53 nM, respectively.

Take `CN(C(=O)c1cc(-c2cc3c(cc2C(=O)N2Cc4ccccc4C[C@H]2CN2CCOCC2)CN(C(=O)Oc2ccc(-n4ccnc4)cc2)CC3)n2c1CCCC2)c1ccc(O)cc1` [Example 143, 4-(1H-imidazol-1-yl)phenyl 6-{1-[(4-hydroxyphenyl)(methyl)carbamoyl]-5,6,7,8-tetrahydroindolizin-3-yl}-7-[(3S)-3-(morpholin-4-ylmethyl)-1,2,3,4-tetrahydroisoquinoline-2-carbonyl]-1,2,3,4-tetrahydroisoquinoline-2-carboxylate]: the IC50 came to 5.5 nM at Bcl-2 protein and 9.3 nM in assay [1].

Turning to `C[C@@H]1Cc2ccccc2CN1C(=O)c1cc2c(cc1-c1cc(C(=O)N(C)c3ccc(O)cc3)c3n1CCCC3)CCN(C(=O)Cc1ccc(CN(C)C)cc1)C2` [Example 144, 3-[2-(2-{4-[(Dimethylamino)methyl]phenyl}acetyl)-7-[(3R)-3-methyl-1,2,3,4-tetrahydroisoquinoline-2-carbonyl]-1,2,3,4-tetrahydroisoquinolin-6-yl]-N-(4-hydroxyphenyl)-N-methyl-5,6,7,8-tetrahydroindolizine-1-carboxamide], the IC50 is 4.8 nM at Bcl-2 protein and 82 nM in assay [1].

On to `Cc1c(C(=O)N(C)c2ccc(O)cc2)cc(-c2cc3c(cc2C(=O)N2Cc4ccccc4C[C@H]2C)CN(C(=O)Cc2ccc(C#N)cc2)CC3)n1C` [Example 145, 5-{2-[2-(4-Cyanophenyl)acetyl]-7-[(3R)-3-methyl-1,2,3,4-tetrahydroisoquinoline-2-carbonyl]-1,2,3,4-tetrahydroisoquinolin-6-yl}-N-(4-hydroxyphenyl)-N,1,2-trimethyl-1H-pyrrole-3-carboxamide], for which the IC50 at Bcl-2 protein turned out to be 4.2 nM; in assay [1], 5.5 nM.

With `Cc1c(C(=O)N(C)c2ccc(O)cc2)cc(-c2cc3c(cc2C(=O)N2Cc4ccccc4C[C@H]2CN2CCOCC2)CN(C(=O)Oc2ccc(C#N)cc2)CC3)n1C` [Example 146, 4-Cyanophenyl 6-{4-[(4-hydroxyphenyl)(methyl)carbamoyl]-1,5-dimethyl-1H-pyrrol-2-yl}-7-[(3S)-3-(morpholin-4-ylmethyl)-1,2,3,4-tetrahydroisoquinoline-2-carbonyl]-1,2,3,4-tetrahydroisoquinoline-2-carboxylate], the IC50 worked out at 2.8 nM on Bcl-2 protein and 6 nM in assay [1].

Regarding `Cc1c(C(=O)N(C)c2ccc(O)cc2)cc(-c2cc3c(cc2C(=O)N2Cc4ccccc4C[C@H]2C)CN(C(=O)Oc2ccc(C#N)cc2)CC3)n1C` [Example 147, 4-Cyanophenyl 6-{4-[(4-hydroxyphenyl)(methyl)carbamoyl]-1,5-dimethyl-1H-pyrrol-2-yl}-7-[(3R)-3-methyl-1,2,3,4-tetrahydroisoquinoline-2-carbonyl]-1,2,3,4-tetrahydroisoquinoline-2-carboxylate], the IC50 on Bcl-2 protein was 3.2 nM; in assay [1] it was 2.3 nM.

Turning to `COc1cc(C#N)ccc1OC(=O)N1CCc2cc(-c3cc(C(=O)N(C)c4ccc(O)cc4)c4n3CCCC4)c(C(=O)N3Cc4ccccc4C[C@H]3CN3CCOCC3)cc2C1` [Example 148, 4-Cyano-2-methoxyphenyl 6-{1-[(4-hydroxyphenyl)(methyl)carbamoyl]-5,6,7,8-tetrahydroindolizin-3-yl}-7-[(3S)-3-(morpholin-4-ylmethyl)-1,2,3,4-tetrahydroisoquinoline-2-carbonyl]-1,2,3,4-tetrahydroisoquinoline-2-carboxylate], the IC50 on Bcl-2 protein worked out at 3 nM; in assay [1], 10 nM.

For `Cc1c(C(=O)N(C)c2ccccc2)cc(-c2cc3c(cc2C(=O)N2Cc4ccccc4C[C@H]2C)CN(C(=O)Cc2ccc(NCCN(C)C)cc2)CC3)n1C` [Example 149, 5-{2-[2-(4-{[2-(Dimethylamino)ethyl]amino}phenyl)acetyl]-7-[(3R)-3-methyl-1,2,3,4-tetrahydroisoquinoline-2-carbonyl]-1,2,3,4-tetrahydroisoquinolin-6-yl}-N,1,2-trimethyl-N-phenyl-1H-pyrrole-3-carboxamide], the IC50 at Bcl-2 protein turned out to be 11 nM; in assay [1], 124 nM.

With `Cc1c(C(=O)N(C)c2ccccc2)cc(-c2cc3c(cc2C(=O)N2Cc4ccccc4C[C@H]2C)CN(C(=O)Cc2ccc(C#N)cc2)CC3)n1C` [Example 150, 5-{2-[2-(4-Cyanophenyl)acetyl]-7-[(3R)-3-methyl-1,2,3,4-tetrahydroisoquinoline-2-carbonyl]-1,2,3,4-tetrahydroisoquinolin-6-yl}-N,1,2-trimethyl-N-phenyl-1H-pyrrole-3-carboxamide], the IC50 turned out to be 4.3 nM at Bcl-2 protein and 16 nM in assay [1].

As to `Cc1c(C(=O)N(C)c2ccccc2)cc(-c2cc3c(cc2C(=O)N2Cc4ccccc4C[C@H]2CN2CCOCC2)CN(C(=O)Cc2ccc(C#N)cc2)CC3)n1C` [Example 151, 5-{2-[2-(4-Cyanophenyl)acetyl]-7-[(3S)-3-(morpholin-4-ylmethyl)-1,2,3,4-tetrahydroisoquinoline-2-carbonyl]-1,2,3,4-tetrahydroisoquinolin-6-yl}-N,1,2-trimethyl-N-phenyl-1H-pyrrole-3-carboxamide], the IC50 was 5.3 nM at Bcl-2 protein and 19 nM in assay [1].

On to `Cc1c(C(=O)N(C)c2ccccc2)cc(-c2cc3c(cc2C(=O)N2Cc4ccccc4C[C@H]2CN2CCOCC2)CN(C(=O)Oc2ccc(C#N)cc2)CC3)n1C` [Example 152, 4-Cyanophenyl 6-{1,5-dimethyl-4-[methyl(phenyl)carbamoyl]-1H-pyrrol-2-yl}-7-[(3S)-3-(morpholin-4-ylmethyl)-1,2,3,4-tetrahydroisoquinoline-2-carbonyl]-1,2,3,4-tetrahydroisoquinoline-2-carboxylate], for which the IC50 is 6.5 nM at Bcl-2 protein and 29 nM in assay [1].
